The source of these data is patent publication US20250152574A1 (BIOGEN MA INC., priority 2022, published 2025).

For this assay, the target named is T1, EBP (Homo sapiens, UniProt Q15125).
T1 construct: HEK293T cells were utilized as the source of EBP enzyme; endogenous in cells; host or cells: HEK293T
In words: EBP Functional Assay (EBP immunoaffinity LC-MS assay). The class given is biochemical. Conditions: HEK293T cells as source of EBP enzyme; substrate zymosterol-d5, 37° C. for 4 h; percent conversion to dehydrolathosterol-d5 by LC-APCI MRM MS. In a few lines: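 HEK293T cells served as EBP source; enzyme preincubated 30 min with inhibitor dilutions, then zymosterol-d5 substrate added and incubated 4 h at 37° C. Sterols extracted and quantified by LC-APCI MRM MS; percent conversion to […] fit to 4-parameter logistic for IC50. Tasin-1 reference inhibitor.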

As usually defined, the IC50 is the concentration that gives 50% inhibition.

T1 sequence (Q15125 whole entry): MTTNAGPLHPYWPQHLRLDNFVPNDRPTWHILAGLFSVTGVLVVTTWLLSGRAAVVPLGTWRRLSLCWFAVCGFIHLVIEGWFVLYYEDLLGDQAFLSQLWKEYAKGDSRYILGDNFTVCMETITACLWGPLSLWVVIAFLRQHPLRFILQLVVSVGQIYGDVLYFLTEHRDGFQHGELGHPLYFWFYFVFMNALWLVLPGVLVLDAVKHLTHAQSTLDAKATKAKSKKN

As for `Cn1nc(C(F)F)cc1S(=O)(=O)N1CCC2(CCC(N3CC4(COC4)C3)C2)CC1` (stereo not shown) [Example 125, 6-(8-((3-(difluoromethyl)-1-methyl-1H-pyrazol-5-yl)sulfonyl)-8-azaspiro[4.5]decan-2-yl)-2-oxa-6-azaspiro[3.3]heptane], the 50% inhibitory concentration (IC50) was less than 100 nM.

`N#Cc1ccc(S(=O)(=O)N2CCC3(CCC(N4CC5(COC5)C4)C3)CC2)c(Cl)c1` (stereo not shown) [Example 126, 4-((2-(2-oxa-6-azaspiro[3.3]heptan-6-yl)-8-azaspiro[4.5]decan-8-yl)sulfonyl)-3-chlorobenzonitrile] came in with a half-maximal inhibitory concentration (IC50) of 100 to 250 nM. Compound `N#Cc1cc(S(=O)(=O)N2CCC3(CCC(N4CC5(COC5)C4)C3)CC2)ccc1F` (stereo not shown) [Example 127, 5-((2-(2-oxa-6-azaspiro[3.3]heptan-6-yl)-8-azaspiro[4.5]decan-8-yl)sulfonyl)-2-fluorobenzonitrile] gave a 50% inhibitory concentration (IC50) of 250 to 1500 nM. `Cc1ccc(S(=O)(=O)N2CCC3(CCC(N4CC5(COC5)C4)C3)CC2)cc1C#N` (stereo not shown) [Example 128, 5-((2-(2-oxa-6-azaspiro[3.3]heptan-6-yl)-8-azaspiro[4.5]decan-8-yl)sulfonyl)-2-methylbenzonitrile] returned an IC50 of less than 100 nM.

Regarding `COc1ccc(S(=O)(=O)N2CCC3(CCC(N4CC5(COC5)C4)C3)CC2)c(F)c1` (stereo not shown) [Example 129, 6-(8-((2-fluoro-4-methoxyphenyl)sulfonyl)-8-azaspiro[4.5]decan-2-yl)-2-oxa-6-azaspiro[3.3]heptane], the 50% inhibitory concentration (IC50) is less than 100 nM.

Take `CC(C)Oc1ccc(S(=O)(=O)N2CCC3(CCC(N4CC5(COC5)C4)C3)CC2)cn1` (stereo not shown) [Example 130, 6-(8-((6-isopropoxypyridin-3-yl)sulfonyl)-8-azaspiro[4.5]decan-2-yl)-2-oxa-6-azaspiro[3.3]heptane]: the IC50 was in the range of 100 to 250 nM.

As for `O=S(=O)(c1cccc2ccnn12)N1CCC2(CCC(N3CC4(COC4)C3)C2)CC1` (stereo not shown) [Example 131, 6-(8-(pyrazolo[1,5-a]pyridin-7-ylsulfonyl)-8-azaspiro[4.5]decan-2-yl)-2-oxa-6-azaspiro[3.3]heptane], the half-maximal inhibitory concentration (IC50) lay within 100 to 250 nM. In turn, `O=S(=O)(c1cnc2cccc(F)c2c1)N1CCC2(CCC(N3CC4(COC4)C3)C2)CC1` (stereo not shown) [Example 132, 6-(8-((5-fluoroquinolin-3-yl)sulfonyl)-8-azaspiro[4.5]decan-2-yl)-2-oxa-6-azaspiro[3.3]heptane] displayed an IC50 of less than 100 nM. `O=S(=O)(c1ccc2ncc(F)cc2c1)N1CCC2(CCC(N3CC4(COC4)C3)C2)CC1` (stereo not shown) [Example 133, 6-(8-((3-fluoroquinolin-6-yl)sulfonyl)-8-azaspiro[4.5]decan-2-yl)-2-oxa-6-azaspiro[3.3]heptane] came in with an IC50 of 100 to 250 nM. Take `O=S(=O)(c1ccc(OC2CC2)cc1)N1CCC2(CCC(N3CC4(COC4)C3)C2)CC1` (stereo not shown) [Example 134, 6-(8-((4-cyclopropoxyphenyl)sulfonyl)-8-azaspiro[4.5]decan-2-yl)-2-oxa-6-azaspiro[3.3]heptane]: the IC50 lay within 250 to 1500 nM.

As to `O=S(=O)(c1ccc2ccoc2c1)N1CCC2(CCC(N3CC4(COC4)C3)C2)CC1` (stereo not shown) [Example 135, 6-(8-(benzofuran-6-ylsulfonyl)-8-azaspiro[4.5]decan-2-yl)-2-oxa-6-azaspiro[3.3]heptane], the IC50 lay in the range of 100 to 250 nM.

Take `COc1ccc(S(=O)(=O)N2CCC3(CC2)CC(N(C)C2CC4(COC4)C2)CO3)c(F)c1` (stereo not shown) [Example 136, 8-((2-fluoro-4-methoxyphenyl)sulfonyl)-N-methyl-N-(2-oxaspiro[3.3]heptan-6-yl)-1-oxa-8-azaspiro[4.5]decan-3-amine]: the half-inhibitory concentration (IC50) was in the range of 100 to 250 nM.

`Cc1nc(C(F)(F)F)ccc1S(=O)(=O)N1CCC2(CC1)CC(NC1CC3(COC3)C1)CO2` (stereo not shown) [Example 137, 8-((2-methyl-6-(trifluoromethyl)pyridin-3-yl)sulfonyl)-N-(2-oxaspiro[3.3]heptan-6-yl)-1-oxa-8-azaspiro[4.5]decan-3-amine]: the IC50 is 250 to 1500 nM. With `Cc1nc(C(F)(F)F)ccc1S(=O)(=O)N1CCC2(CC1)CC(NC1CCOCC1)CO2` (stereo not shown) [Example 138, 8-((2-methyl-6-(trifluoromethyl)pyridin-3-yl)sulfonyl)-N-(tetrahydro-2H-pyran-4-yl)-1-oxa-8-azaspiro[4.5]decan-3-amine], the IC50 was in the range of 250 to 1500 nM. The result for `Cn1nc(C(F)(F)F)cc1S(=O)(=O)N1CCC2(CC1)CC(NC1CC3(COC3)C1)CO2` (stereo not shown) [Example 139, 8-((1-methyl-3-(trifluoromethyl)-1H-pyrazol-5-yl)sulfonyl)-N-(2-oxaspiro[3.3]heptan-6-yl)-1-oxa-8-azaspiro[4.5]decan-3-amine] reads 100 to 250 nM; that for `Cc1nc(C(F)(F)F)ncc1S(=O)(=O)N1CCC2(CC1)CC(N(C)C1CC3(COC3)C1)CO2` (stereo not shown) [Example 140, N-methyl-8-((4-methyl-2-(trifluoromethyl)pyrimidin-5-yl)sulfonyl)-N-(2-oxaspiro[3.3]heptan-6-yl)-1-oxa-8-azaspiro[4.5]decan-3-amine], less than 100 nM; that for `Cc1cc(S(=O)(=O)N2CCC3(CCC(N4CC5(COC5)C4)C3)CC2)n(C)n1` (stereo not shown) [Example 142, 6-(8-((1,3-dimethyl-1H-pyrazol-5-yl)sulfonyl)-8-azaspiro[4.5]decan-2-yl)-2-oxa-6-azaspiro[3.3]heptane], 100 to 250 nM. In the case of `O=S(=O)(c1ccc(OC(F)F)cc1)N1CCC2(CC1)CC(N1CC3(CCCOC3)C1)CO2` (stereo not shown) [Example 143, 8-((4-(difluoromethoxy)phenyl)sulfonyl)-3-(6-oxa-2-azaspiro[3.5]nonan-2-yl)-1-oxa-8-azaspiro[4.5]decane] it was 100 to 250 nM. `O=S(=O)(c1ccc2cccnc2c1)N1CCC2(CCC(N3CC4(COC4)C3)C2)CC1` (stereo not shown) [Example 144, 6-(8-(quinolin-7-ylsulfonyl)-8-azaspiro[4.5]decan-2-yl)-2-oxa-6-azaspiro[3.3]heptane] registered an IC50 of 100 to 250 nM.
